Test results from patent US12018059B2, “Human amylin analog polypeptides and methods of use” (Intarcia Therapeutics, Inc., priority 2018, dated 2024).
Starred links: 1 amine or outer side, 2 acyl side, 3 side chain; linkers in the order of their positions; H or OH if unused. Positions of bridges follow the written chain, without caps; N, C: chain ends. Non-standard residues stand in square brackets, D forms with d. Residues, ends and D or L forms follow the SMILES beside them. Groups on a side chain read outwards from the residue. *: point of attachment. X4 = CCCCCCCCCCCCCCCC(=O)N[C@@H](CCC(=O)NCOCCOCC(=O)NCOCCOCC(=O)*)C(=O)O; C18 diacid = O=C(O)CCCCCCCCCCCCCCCCC(=O)*; γGlu = O=C(O)[C@H](CCC(=O)[*:2])N[*:1]; Stearoyl = CCCCCCCCCCCCCCCCCC(=O)*; HOOC(CH2)6CO = O=C(O)CCCCCCC(=O)*; Palmitoyl = CCCCCCCCCCCCCCCC(=O)*; AEEA = NCCOCCOCC(=O)O

Assay: in vivo
Set-up: species or system Sprague-Dawley rats
Conditions: rat, iv, 0.033 mg/kg
Method in brief: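 Male Sprague-Dawley rats, non-fasted (n=3), given peptide in saline as 1-h IV or SC infusion at 0.033 mg/kg, or SC bolus at 0.3 mg/kg; jugular blood to 48 h into K2EDTA plus protease inhibitors. Plasma extracted by precipitation or WCX solid-phase extraction, quantified by UPLC-MS/MS against standards in matching rat plasma.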

Vd [L/kg]	clearance [mL/min/kg]	half-life [h]	SMILES
0.194	0.194	13.2	CCCCCCCCCCCCCCCC(=O)N[C@@H](CCC(=O)N[C@@H](CCC(=O)N[C@@H](CCC(=O)N[C@@H](CCC(=O)N[C@@H](CCC(=O)NCCCC[C@@H](NC(=O)[C@H](CCC(=O)O)NC(=O)[C@H](CC(N)=O)NC(=O)[C@H](C)NC(=O)[C@H](CC(C)C)NC(=O)[C@H](CCCNC(=N)N)NC(=O)[C@H](CCC(N)=O)NC(=O)[C@@H](NC(=O)[C@H](C)NC(=O)[C@@H]1CSSC[C@H](NC(=O)[C@@H](N)CO)C(=O)N[C@@H](CC(N)=O)C(=O)N[C@@H]([C@@H](C)O)C(=O)N[C@@H](CO)C(=O)N[C@@H]([C@@H](C)O)C(=O)N1)[C@@H](C)O)C(=O)N[C@@H](Cc1c[nH]cn1)C(=O)N[C@@H](CCCCN)C(=O)N[C@@H](CO)C(=O)N[C@@H](CO)C(=O)N[C@@H](CC(N)=O)C(=O)N[C@@H](CC(N)=O)C(=O)N[C@@H](Cc1ccccc1)C(=O)NCC(=O)N1CCC[C@H]1C(=O)N[C@H](C(=O)N[C@@H](CC(C)C)C(=O)N1CCC[C@H]1C(=O)N1CCC[C@H]1C(=O)N[C@H](C(=O)N[C@@H](CCCCN)C(=O)N[C@H](C(=O)NCC(=O)N[C@@H](CO)C(=O)N[C@@H](CCC(=O)O)C(=O)N[C@H](C(=O)N[C@@H](Cc1ccc(O)cc1)C(N)=O)[C@@H](C)O)C(C)C)[C@@H](C)O)[C@@H](C)CC)C(=O)O)C(=O)O)C(=O)O)C(=O)O)C(=O)O [Compound A91] (H-SCNTSTCATQRLANE[dK]([γGlu-γGlu-γGlu-γGlu-γGlu-Palmitoyl])HKSSNNFGPILPPTKVGSETY-NH2; disulfide 2-7)
0.469	1.34	4.29	CCCCCCCCCCCCCCCCCC(=O)N[C@@H](CCC(=O)N[C@@H](CCC(=O)NCCCC[C@@H](NC(=O)[C@H](CCC(=O)O)NC(=O)[C@H](CC(N)=O)NC(=O)[C@H](C)NC(=O)[C@H](CC(C)C)NC(=O)[C@H](CCCNC(=N)N)NC(=O)[C@H](CCC(N)=O)NC(=O)[C@@H](NC(=O)[C@H](C)NC(=O)[C@@H]1CSSC[C@H](NC(=O)[C@@H](N)CO)C(=O)N[C@@H](CC(N)=O)C(=O)N[C@@H]([C@@H](C)O)C(=O)N[C@@H](CO)C(=O)N[C@@H]([C@@H](C)O)C(=O)N1)[C@@H](C)O)C(=O)N[C@@H](Cc1c[nH]cn1)C(=O)N[C@@H](CCCCN)C(=O)N[C@@H](CO)C(=O)N[C@@H](CO)C(=O)N[C@@H](CC(N)=O)C(=O)N[C@@H](CC(N)=O)C(=O)N[C@@H](Cc1ccccc1)C(=O)NCC(=O)N1CCC[C@H]1C(=O)N[C@H](C(=O)N[C@@H](CC(C)C)C(=O)N1CCC[C@H]1C(=O)N1CCC[C@H]1C(=O)N[C@H](C(=O)N[C@@H](CCCCN)C(=O)N[C@H](C(=O)NCC(=O)N[C@@H](CO)C(=O)N[C@@H](CCC(=O)O)C(=O)N[C@H](C(=O)N[C@@H](Cc1ccc(O)cc1)C(N)=O)[C@@H](C)O)C(C)C)[C@@H](C)O)[C@@H](C)CC)C(=O)O)C(=O)O [Compound A56] (H-SCNTSTCATQRLANE[dK]([γGlu-γGlu-Stearoyl])HKSSNNFGPILPPTKVGSETY-NH2; disulfide 2-7)
0.54	2.66	2.81	CCCCCCCCCCCCCCCC(=O)N[C@@H](CCC(=O)NCOCCOCC(=O)NCOCCOCC(=O)N[C@@H](CCC(=O)NCCCC[C@H](NC(=O)[C@H](CCC(=O)O)NC(=O)[C@H](CC(N)=O)NC(=O)[C@H](C)NC(=O)[C@H](CC(C)C)NC(=O)[C@H](CCCNC(=N)N)NC(=O)[C@H](CCC(N)=O)NC(=O)[C@@H](NC(=O)[C@H](C)NC(=O)[C@@H]1CSSC[C@H](NC(=O)[C@@H](N)CO)C(=O)N[C@@H](CC(N)=O)C(=O)N[C@@H]([C@@H](C)O)C(=O)N[C@@H](CO)C(=O)N[C@@H]([C@@H](C)O)C(=O)N1)[C@@H](C)O)C(=O)N[C@@H](Cc1c[nH]cn1)C(=O)N[C@@H](CCCCN)C(=O)N[C@@H](CO)C(=O)N[C@@H](CO)C(=O)N[C@@H](CC(N)=O)C(=O)N[C@@H](CC(N)=O)C(=O)N[C@@H](Cc1ccccc1)C(=O)NCC(=O)N1CCC[C@H]1C(=O)N[C@H](C(=O)N[C@@H](CC(C)C)C(=O)N1CCC[C@H]1C(=O)N1CCC[C@H]1C(=O)N[C@H](C(=O)N[C@@H](CCCCN)C(=O)N[C@H](C(=O)NCC(=O)N[C@@H](CO)C(=O)N[C@@H](CCC(=O)O)C(=O)N[C@H](C(=O)N[C@@H](Cc1ccc(O)cc1)C(N)=O)[C@@H](C)O)C(C)C)[C@@H](C)O)[C@@H](C)CC)C(=O)O)C(=O)O [Compound A63] (H-SCNTSTCATQRLANEK([γGlu-X4])HKSSNNFGPILPPTKVGSETY-NH2; disulfide 2-7; N-terminus assumed)
0.252	1.55	2.47	CCCCCCCCCCCCCCCC(=O)N[C@@H](CCC(=O)NCCOCCOCC(=O)NCCOCCOCC(=O)NCCCC[C@@H](NC(=O)[C@H](CCC(=O)O)NC(=O)[C@H](CC(N)=O)NC(=O)[C@H](C)NC(=O)[C@H](CC(C)C)NC(=O)[C@H](CCCNC(=N)N)NC(=O)[C@H](CCC(N)=O)NC(=O)[C@@H](NC(=O)[C@H](C)NC(=O)[C@@H]1CSSC[C@H](NC(=O)[C@@H](N)CO)C(=O)N[C@@H](CC(N)=O)C(=O)N[C@@H]([C@@H](C)O)C(=O)N[C@@H](CO)C(=O)N[C@@H]([C@@H](C)O)C(=O)N1)[C@@H](C)O)C(=O)N[C@@H](Cc1c[nH]cn1)C(=O)N[C@@H](CCCCN)C(=O)N[C@@H](CO)C(=O)N[C@@H](CO)C(=O)N[C@@H](CC(N)=O)C(=O)N[C@@H](CC(N)=O)C(=O)N[C@@H](Cc1ccccc1)C(=O)NCC(=O)N1CCC[C@H]1C(=O)N[C@H](C(=O)N[C@@H](CC(C)C)C(=O)N1CCC[C@H]1C(=O)N1CCC[C@H]1C(=O)N[C@H](C(=O)N[C@@H](CCCCN)C(=O)N[C@H](C(=O)NCC(=O)N[C@@H](CO)C(=O)N[C@@H](CCC(=O)O)C(=O)N[C@H](C(=O)N[C@@H](Cc1ccc(O)cc1)C(N)=O)[C@@H](C)O)C(C)C)[C@@H](C)O)[C@@H](C)CC)C(=O)O [Compound A12] (H-SCNTSTCATQRLANE[dK]([AEEA-AEEA-γGlu-Palmitoyl])HKSSNNFGPILPPTKVGSETY-NH2; disulfide 2-7; N-terminus assumed)

Continued, compound first:

SMILES	Vd [L/kg]	clearance [mL/min/kg]	half-life [h]
CC[C@H](C)[C@H](NC(=O)[C@@H]1CCCN1C(=O)CNC(=O)[C@H](Cc1ccccc1)NC(=O)[C@H](CC(N)=O)NC(=O)[C@H](CC(N)=O)NC(=O)[C@H](CO)NC(=O)[C@H](CO)NC(=O)[C@H](CCCCN)NC(=O)[C@H](Cc1c[nH]cn1)NC(=O)[C@H](CC(C)C)NC(=O)[C@H](CCCCNC(=O)CCCCCCC(=O)O)NC(=O)[C@H](CC(N)=O)NC(=O)[C@H](C)NC(=O)[C@H](CC(C)C)NC(=O)[C@H](CCCNC(=N)N)NC(=O)[C@H](CCC(N)=O)NC(=O)[C@@H](NC(=O)[C@H](C)NC(=O)[C@@H]1CSSC[C@H](NC(=O)[C@@H](N)CO)C(=O)N[C@@H](CC(N)=O)C(=O)N[C@@H]([C@@H](C)O)C(=O)N[C@@H](CO)C(=O)N[C@@H]([C@@H](C)O)C(=O)N1)[C@@H](C)O)C(=O)N[C@@H](CC(C)C)C(=O)N1CCC[C@H]1C(=O)N1CCC[C@H]1C(=O)N[C@H](C(=O)N[C@@H](CCCCN)C(=O)N[C@H](C(=O)NCC(=O)N[C@@H](CO)C(=O)N[C@@H](CCC(=O)O)C(=O)N[C@H](C(=O)N[C@@H](Cc1ccc(O)cc1)C(N)=O)[C@@H](C)O)C(C)C)[C@@H](C)O [Compound A18] (H-SCNTSTCATQRLANK(HOOC(CH2)6CO)LHKSSNNFGPILPPTKVGSETY-NH2; disulfide 2-7)	0.805	19.4	0.508
CC[C@H](C)[C@H](NC(=O)[C@@H]1CCCN1C(=O)CNC(=O)[C@H](Cc1ccccc1)NC(=O)[C@H](CC(N)=O)NC(=O)[C@H](CC(N)=O)NC(=O)[C@H](CO)NC(=O)[C@H](CO)NC(=O)[C@H](CCCCN)NC(=O)[C@H](CCC(N)=O)NC(=O)[C@H](CC(C)C)NC(=O)[C@H](Cc1ccccc1)NC(=O)[C@H](CC(N)=O)NC(=O)[C@H](C)NC(=O)[C@H](CC(C)C)NC(=O)[C@H](CCCNC(=N)N)NC(=O)[C@H](CO)NC(=O)[C@@H](NC(=O)[C@H](C)NC(=O)[C@@H]1CSSC[C@H](NC(=O)[C@@H](N)CCCCNC(=O)CC[C@H](NC(=O)CCCCCCCCCCCCCCCCC(=O)O)C(=O)O)C(=O)N[C@@H](CC(N)=O)C(=O)N[C@@H]([C@@H](C)O)C(=O)N[C@@H](CO)C(=O)N[C@@H]([C@@H](C)O)C(=O)N1)[C@@H](C)O)C(=O)N[C@@H](CC(C)C)C(=O)N1CCC[C@H]1C(=O)N1CCC[C@H]1C(=O)N[C@H](C(=O)N[C@@H](CCCCN)C(=O)N[C@H](C(=O)NCC(=O)N[C@@H](CO)C(=O)N[C@@H](CCC(=O)O)C(=O)N[C@H](C(=O)N[C@@H](Cc1ccc(O)cc1)C(N)=O)[C@@H](C)O)C(C)C)[C@@H](C)O [Compound A109] (H-K([γGlu-C18 diacid])CNTSTCATSRLANFLQKSSNNFGPILPPTKVGSETY-NH2; disulfide 2-7; N-terminus assumed)	0.154	0.15	16
CC[C@H](C)[C@H](NC(=O)[C@@H]1CCCN1C(=O)CNC(=O)[C@H](Cc1ccccc1)NC(=O)[C@H](CC(N)=O)NC(=O)[C@H](CC(N)=O)NC(=O)[C@H](CO)NC(=O)[C@H](CO)NC(=O)[C@H](CCCCN)NC(=O)[C@H](Cc1c[nH]cn1)NC(=O)[C@H](CCCCNC(=O)CCCCCCCCCCCCCCCCC(=O)O)NC(=O)[C@H](CCC(=O)O)NC(=O)[C@H](CC(N)=O)NC(=O)[C@H](C)NC(=O)[C@H](CC(C)C)NC(=O)[C@H](CCCNC(=N)N)NC(=O)[C@H](CCC(N)=O)NC(=O)[C@@H](NC(=O)[C@H](C)NC(=O)[C@@H]1CSSC[C@H](NC(=O)[C@@H](N)CO)C(=O)N[C@@H](CC(N)=O)C(=O)N[C@@H]([C@@H](C)O)C(=O)N[C@@H](CO)C(=O)N[C@@H]([C@@H](C)O)C(=O)N1)[C@@H](C)O)C(=O)N[C@@H](CC(C)C)C(=O)N1CCC[C@H]1C(=O)N1CCC[C@H]1C(=O)N[C@H](C(=O)N[C@@H](CCCCN)C(=O)N[C@H](C(=O)NCC(=O)N[C@@H](CO)C(=O)N[C@@H](CCC(=O)O)C(=O)N[C@H](C(=O)N[C@@H](Cc1ccc(O)cc1)C(N)=O)[C@@H](C)O)C(C)C)[C@@H](C)O [Compound A93] (H-SCNTSTCATQRLANEK(C18 diacid)HKSSNNFGPILPPTKVGSETY-NH2; disulfide 2-7)	0.129	0.109	16.7
